Data from the supplement of paper PMC11208160.

Test: recombinant barcode read abundance after kanamycin selection (control-corrected) (log10(CPM+1)); higher = more efficient recombination; sequences stand for … in AGTGCAGAGAAAATCGGCCAGTTTTCTCTGCCTGCAGTCCGCATGCCGT…AGATTTATGCAGCGGACTGCCTTTCTCCCAAAGTGATAAACCGGACAGTATCATGGACCGGTTTTCCCGGTAATCCGTATTTGCAAGGTTGGTTTCACT; site = the 11-nt target
Procedure, shortened: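 In E. coli, a pooled library matched targets to IS621 bridge RNA target-binding loops and was introduced alongside a donor plasmid. Cells went onto chloramphenicol/ampicillin/kanamycin with 0.1 mM IPTG or onto chloramphenicol/ampicillin LB agar as control, in duplicate. Recombination efficiency, from recombinant-junction barcodes as counts per million, is averaged and control-corrected. It is reported as log10(CPM+1).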
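Note: IS621 recombinase and bridge RNA in Escherichia coli cells.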

Sequence | recombinant barcode read abundance (log10)
CGCGGTTCTTGGGTTCTAACCTGTTGCCT (site CGAGGTTCTAG) | 0.339
CGCGGTTCTTGGGTTCTAACCTGTTGCCT (site CGCGGTTCTAG) | 0.0855
CGCGTTGCTTGGGTTCTAACCTGTTGCCT (site AAGCCCACTCC) | 0.0136
CGCGTTGCTTGGGTTCTAACCTGTTGCCT (site CGCGTTGCTAG) | 0.48
CGCTCGTCTTGGGTTCTAACCTGTTGCCT (site CGCTAGTCTAG) | 0.0163
CGCTCGTCTTGGGTTCTAACCTGTTGCCT (site CGCTCGTCTAG) | 0.00559
CGCTCGTCTTGGGTTCTAACCTGTTGCCT (site CGCTGGTCTAG) | 0.0376
CGCTCGTCTTGGGTTCTAACCTGTTGCCT (site CGCTTGTCTAG) | 0.163
CGCTGTCCTTGGGTTCTAACCTGTTGCTT (site CGCTGACCTAA) | 0.156
CGCTGTCCTTGGGTTCTAACCTGTTGCTT (site CGCTGCCCTAA) | 0.148
CGCTGTCCTTGGGTTCTAACCTGTTGCTT (site CGCTGGCCTAA) | 0.348
CGCTGTCCTTGGGTTCTAACCTGTTGCTT (site CGCTGTCCTAA) | 0.176
CGGAACCCTTGGGTTCTAACCTGTTGCCG (site CGGAACCCTCG) | 1.22
CGGAACCCTTGGGTTCTAACCTGTTGCCG (site CGGAGCCCTTG) | 0.11
CGGAAGACTTGGGTTCTAACCTGTTGCCT (site CGGAAGACTAG) | 1.98
CGGAAGACTTGGGTTCTAACCTGTTGCCT (site CGGAAGCCTAG) | 0.121
CGGAAGACTTGGGTTCTAACCTGTTGCCT (site CGGAAGGCTAG) | 0.537
CGGAAGACTTGGGTTCTAACCTGTTGCCT (site CGGAAGTCTAG) | 0.516
CGGAAGCCTTGGGTTCTAACCTGTTGCCT (site CGGAAGACTAG) | 0.0744
CGGAAGCCTTGGGTTCTAACCTGTTGCCT (site CGGAAGCCTAG) | 1.74
CGGAAGCCTTGGGTTCTAACCTGTTGCCT (site CGGAAGGCTAG) | 0.0821
CGGAAGCCTTGGGTTCTAACCTGTTGCCT (site CGGAAGTCTAG) | 0.818

Sequence | recombinant barcode read abundance (log10)
CGGAAGGCTTGGGTTCTAACCTGTTGCCT (site CGGAAGACTAG) | 0.036
CGGAAGGCTTGGGTTCTAACCTGTTGCCT (site CGGAAGCCTAG) | 0.0918
CGGAAGGCTTGGGTTCTAACCTGTTGCCT (site CGGAAGGCTAG) | 0.89
CGGAAGGCTTGGGTTCTAACCTGTTGCCT (site CGGAAGTCTAG) | 0.401
CGGAATCCTTGGGTTCTAACCTGTTGCGT (site CGGAATCCTAA) | 0.159
CGGAATCCTTGGGTTCTAACCTGTTGCGT (site CGGAATCCTAC) | 2.33
CGGAATCCTTGGGTTCTAACCTGTTGCGT (site CGGAATCCTAG) | 0.345
CGGAATCCTTGGGTTCTAACCTGTTGCGT (site CGGAATCCTAT) | 1.19
CGGACGTCTTGGGTTCTAACCTGTTGCTG (site CGGACGTCTCA) | 1.69
CGGACGTCTTGGGTTCTAACCTGTTGCTG (site CGGGCGTCTAA) | 0.0605
CGGACTGCTTGGGTTCTAACCTGTTGCCT (site ACCTGACCTCC) | 0.0853
CGGACTGCTTGGGTTCTAACCTGTTGCCT (site CGGACTGCTAG) | 0.374
CGGAGCCCTTGGGTTCTAACCTGTTGCCA (site CGGAACCCTCG) | 0.0889
CGGAGCCCTTGGGTTCTAACCTGTTGCCA (site CGGAGCCCTTG) | 0.883
CGGAGTCCTTGGGTTCTAACCTGTTGCTA (site CGGAGTCCTTA) | 0.774
CGGAGTCCTTGGGTTCTAACCTGTTGCTA (site CGGCGTCCTTA) | 0.113
CGGAGTCCTTGGGTTCTAACCTGTTGCTA (site CGGGGTCCTTA) | 0.0775
CGGAGTCCTTGGGTTCTAACCTGTTGCTA (site CGGTGTCCTTA) | 0.102
CGGCAGTCTTGGGTTCTAACCTGTTGCGT (site CGACAGTCTAC) | 2.34
CGGCAGTCTTGGGTTCTAACCTGTTGCGT (site CGGCAGTCTAC) | 2.6
CGGCCCTCTTGGGTTCTAACCTGTTGCCT (site CAGCCCTCTAG) | 1.23
CGGCCCTCTTGGGTTCTAACCTGTTGCCT (site CCGCCCTCTAG) | 0.29

Sequence | recombinant barcode read abundance (log10)
CGGCCCTCTTGGGTTCTAACCTGTTGCCT (site CGGCCCTCTAG) | 2.52
CGGCCCTCTTGGGTTCTAACCTGTTGCCT (site CTGCCCTCTAG) | 0.185
CGGCCGACTTGGGTTCTAACCTGTTGCGG (site CGGCCGACTCC) | 2.36
CGGCCGACTTGGGTTCTAACCTGTTGCGG (site CGGGCGCCTCC) | 0.184
CGGCTATCTTGGGTTCTAACCTGTTGCCT (site CGGCTATCTAG) | 0.194
CGGCTATCTTGGGTTCTAACCTGTTGCCT (site TGGCTATCTAG) | 0.0495
CGGCTCACTTGGGTTCTAACCTGTTGCCT (site CGGCTCACTAG) | 1.66
CGGCTCACTTGGGTTCTAACCTGTTGCCT (site CGGCTGACTAG) | 0.123
CGGGAAGCTTGGGTTCTAACCTGTTGCCT (site CGGGAAGCTAG) | 1.61
CGGGAAGCTTGGGTTCTAACCTGTTGCCT (site CGGGGAGCTCG) | 0.287
CGGGACCCTTGGGTTCTAACCTGTTGCCT (site CGGGACCCTAG) | 1.26
CGGGACCCTTGGGTTCTAACCTGTTGCCT (site CGTGACCCTAA) | 0.634
CGGGCAGCTTGGGTTCTAACCTGTTGCCT (site CGAGCAGCTAG) | 0.0303
CGGGCAGCTTGGGTTCTAACCTGTTGCCT (site CGCGCAGCTAG) | 0.0844
CGGGCAGCTTGGGTTCTAACCTGTTGCCT (site CGGGCAGCTAG) | 0.0664
CGGGCAGCTTGGGTTCTAACCTGTTGCCT (site CGTGCAGCTAG) | 0.156
CGGGCCACTTGGGTTCTAACCTGTTGCGT (site CGGCCCACTCC) | 0.175
CGGGCCACTTGGGTTCTAACCTGTTGCGT (site CGGGCCACTAC) | 2.99
CGGGCGTCTTGGGTTCTAACCTGTTGCTT (site CGGACGTCTCA) | 0.148
CGGGCGTCTTGGGTTCTAACCTGTTGCTT (site CGGGCGTCTAA) | 1.46
CGGTCCTCTTGGGTTCTAACCTGTTGCGC (site CGGGCCTCTGT) | 0.0542
CGGTCCTCTTGGGTTCTAACCTGTTGCGC (site CGGTCCTCTGC) | 2.63

Sequence | recombinant barcode read abundance (log10)
CGGTCTACTTGGGTTCTAACCTGTTGCCT (site CAGTCTACTAG) | 0.0894
CGGTCTACTTGGGTTCTAACCTGTTGCCT (site CCGTCTACTAG) | 0.264
CGGTCTACTTGGGTTCTAACCTGTTGCCT (site CGGTCTACTAG) | 0.219
CGGTCTACTTGGGTTCTAACCTGTTGCCT (site CTGTCTACTAG) | 0.0592
CGGTCTGCTTGGGTTCTAACCTGTTGCAT (site CGGTCTGCTAT) | 0.826
CGGTCTGCTTGGGTTCTAACCTGTTGCAT (site GCTAGGACTCA) | 0.217
CGGTGTCCTTGGGTTCTAACCTGTTGCTT (site AGGTGTCCTAA) | 0.0515
CGGTGTCCTTGGGTTCTAACCTGTTGCTT (site CGGTGTCCTAA) | 1.21
CGGTTGCCTTGGGTTCTAACCTGTTGCGT (site CGGTCGCCTAT) | 0.318
CGGTTGCCTTGGGTTCTAACCTGTTGCGT (site CGGTTGCCTAC) | 2.48
CGTAATGCTTGGGTTCTAACCTGTTGCCT (site CGAAATGCTAG) | 0.178
CGTAATGCTTGGGTTCTAACCTGTTGCCT (site CGCAATGCTAG) | 0.234
CGTAATGCTTGGGTTCTAACCTGTTGCCT (site CGGAATGCTAG) | 0.0453
CGTAATGCTTGGGTTCTAACCTGTTGCCT (site CGTAATGCTAG) | 0.0999
CGTAGACCTTGGGTTCTAACCTGTTGCTA (site CGTAGACCTTA) | 0.216
CGTAGACCTTGGGTTCTAACCTGTTGCTA (site TTATCCGCTAG) | 0.0216
CGTAGGACTTGGGTTCTAACCTGTTGCCT (site AGTAGGACTAG) | 0.0846
CGTAGGACTTGGGTTCTAACCTGTTGCCT (site CGTAGGACTAG) | 0.209
CGTAGGACTTGGGTTCTAACCTGTTGCCT (site GGTAGGACTAG) | 0.0902
CGTAGGACTTGGGTTCTAACCTGTTGCCT (site TGTAGGACTAG) | 0.0115
